These results are taken from patent US11078170B2 (Assembly Biosciences, Inc., priority 2017, dated 2021).

Bounds are passed on as bounds.

The subject of this assay is HBV viral production from HepAD38 cells. Briefly: Activity of test compounds on viral production from HepAD38 cells (viral load by qPCR of HBV core sequence in supernatant). It counts as cell-based. As to conditions: Hepatitis B virus, 120 h, 5 days incubation, HBV DNA in supernatant by qPCR, top concentration 10 μM, read-out: Viral Load EC50 Activity range. In short, it runs like this:
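EC50 and CC50 come from four-parameter fits of supernatant viral load and CellTiter-Glo viability, respectively. Viral load was measured by core-region TaqMan qPCR against HBV DNA standards and compared with DMSO controls. Tet-free HepAD38 cells (50,000/well, 2% FBS) were exposed to compound, highest 10 μM, for 5 days at 37° C.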
In general terms: Quantitative PCR measures a nucleic acid by following its amplification.
A word on the EC50: it is the concentration needed to bring the measured effect to its halfway point. `CN1[C@H](C(=O)Nc2ccc(F)c(Br)c2)C[C@H](c2ncc(-c3cn(C)cn3)s2)NS1(=O)=O` [HBV-CSU-369, (3S,5R)—N-(3-bromo-4-fluorophenyl)-2-methyl-5-(5-(1-methyl-1H-imidazol-4-yl)thiazol-2-yl)-1,2,6-thiadiazinane-3-carboxamide 1,1-dioxide]: the 50% effective concentration (EC50) was less than 1000 nM. Turning to `Cc1ccc([C@@H]2C[C@H](C(=O)Nc3ccc(F)c(Cl)c3)N(C)S(=O)(=O)N2)s1` [HBV-CSU-115-ISO-II, Cis-N-(3-chloro-4-fluorophenyl)-2-methyl-5-(5-methylthiophen-2-yl)-1,2,6-thiadiazinane-3-carboxamide 1,1-dioxide], the EC50 was more than 5000 nM. `Cc1cc(C2CC(C(=O)Nc3ccc(F)c(Cl)c3)N(C)S(=O)(=O)N2)sc1Br` (stereo not drawn) [HBV-CSU-335, Cis-5-(5-bromo-4-methylthiophen-2-yl)-N-(3-chloro-4-fluorophenyl)-2-methyl-1,2,6-thiadiazinane-3-carboxamide 1,1-dioxide]: the EC50 was less than 1000 nM. Take `CN1[C@@H](C(=O)Nc2ccc(F)c(Cl)c2)C[C@@H](c2cccc(F)c2)NS1(=O)=O` [HBV-CSU-231-ISO-II, Cis-N-(3-Chloro-4-fluorophenyl)-5-(3-fluorophenyl)-2-methyl-1,2,6-thiadiazinane-3-carboxamide 1,1-dioxide]: the EC50 is more than 5000 nM. Under `CN1[C@H](C(=O)Nc2ccc(F)c(Cl)c2)C[C@H](c2ncc(-c3ccn(C)n3)s2)NS1(=O)=O` (stereo in doubt) [HBV-CSU-280-ISO-I, Cis-N-(3-Chloro-4-fluorophenyl)-2-methyl-5-(5-(1-methyl-1H-pyrazol-3-yl)thiazol-2-yl)-1,2,6-thiadiazinane-3-carboxamide 1,1-dioxide] stands 1000 to 5000 nM; under `CN1[C@H](C(=O)Nc2ccc(F)c(Cl)c2)C[C@H](c2ccc(-c3nncn3C)s2)NS1(=O)=O` [HBV-CSU-324-ISO-I, Cis-N-(3-Chloro-4-fluorophenyl)-2-methyl-5-(5-(4-methyl-4H-1,2,4-triazol-3-yl)thiophen-2-yl)-1,2,6-thiadiazinane-3-carboxamide 1,1-dioxide], less than 1000 nM; under `CN1[C@H](C(=O)Nc2ccc(F)c(Cl)c2)C[C@@H](c2ncc(-c3cn(C)cn3)s2)NS1(=O)=O` [HBV-CSU-276-Trans-ISO-II, (3S,5S)-N-(3-chloro-4-fluorophenyl)-2-methyl-5-(5-(1-methyl-1H-imidazol-4-yl)thiazol-2-yl)-1,2,6-thiadiazinane-3-carboxamide 1,1-dioxide], 1000 to 5000 nM. To `COc1ccc(C2CC(C(=O)Nc3ccc(F)c(Cl)c3)N(C)S(=O)(=O)N2)cc1` (stereo not drawn) [HBV-CSU-200, Cis-N-(3-Chloro-4-fluorophenyl)-5-(4-methoxyphenyl)-2-methyl-1,2,6-thiadiazinane-3-carboxamide 1,1-dioxide] belongs less than 1000 nM. To `CC(C)n1cc(-c2ccc([C@@H]3C[C@H](C(=O)Nc4ccc(F)c(Cl)c4)N(C)S(=O)(=O)N3)s2)cn1` [HBV-CSU-292-ISO-II, Cis-N-(3-chloro-4-fluorophenyl)-5-(5-(1-isopropyl-1H-pyrazol-4-yl)thiophen-2-yl)-2-methyl-1,2,6-thiadiazinane-3-carboxamide 1,1-dioxide] belongs 1000 to 5000 nM. On to `CN1[C@@H](C(=O)Nc2ccc(F)c(Cl)c2)C[C@@H](c2ccc(-c3cccs3)s2)NS1(=O)=O` [HBV-CSU-162-ISO-II, Cis-N-5-([2,2′-bithiophen]-5-yl)-N-(3-chloro-4-fluorophenyl)-2-methyl-1,2,6-thiadiazinane-3-carboxamide 1,1-dioxide], for which the EC50 is 1000 to 5000 nM.

As for `O=C(Nc1ccc(F)c(Cl)c1)[C@@H]1C[C@H](c2nccs2)NS(=O)(=O)N1CCOC(F)(F)F` [HBV-CSU-072-ISO-II, Cis-N-(3-Chloro-4-fluorophenyl)-5-(thiazol-2-yl)-2-(2-(trifluoromethoxy)ethyl)-1,2,6-thiadiazinane-3-carboxamide 1,1-dioxide], the EC50 was less than 1000 nM. Under `COCCN1[C@H](c2cccs2)C[C@H](C(=O)Nc2ccc(F)c(Cl)c2)NS1(=O)=O` [HBV-CSU-044-ISO-I, Cis-N-(3-Chloro-4-fluorophenyl)-6-(2-methoxyethyl)-5-(thiophen-2-yl)-1,2,6-thiadiazinane-3-carboxamide 1,1-dioxide] stands more than 5000 nM; under `CN1[C@H](C(=O)Nc2ccc(F)c(Cl)c2)C[C@H](c2ccc(-c3cnn(C(F)(F)F)c3)s2)NS1(=O)=O` [HBV-CSU-321-ISO-I, Cis-N-(3-Chloro-4-fluorophenyl)-2-methyl-5-(5-(1-(trifluoromethyl)-1H-pyrazol-4-yl)thiophen-2-yl)-1,2,6-thiadiazinane-3-carboxamide 1,1-dioxide], less than 1000 nM.

For `CN1[C@H](C(=O)Nc2ccc(F)c(Cl)c2)C[C@H](c2ccc(F)c(F)c2)NS1(=O)=O` [HBV-CSU-230-ISO-I, Cis-N-(3-Chloro-4-fluorophenyl)-5-(3,4-difluorophenyl)-2-methyl-1,2,6-thiadiazinane-3-carboxamide 1,1-dioxide], the concentration for a half-maximal effect (EC50) was less than 1000 nM. To `COc1ccc(-c2ccc([C@@H]3C[C@H](C(=O)Nc4ccc(F)c(Cl)c4)N(C)S(=O)(=O)N3)s2)cc1` [HBV-CSU-240-ISO-II] belongs 1000 to 5000 nM. With `CN1[C@@H](C(=O)Nc2ccc(F)c(Cl)c2)C[C@@H](c2ccc(-c3cnco3)s2)NS1(=O)=O` [HBV-CSU-269-ISO-II, Cis-N-(3-Chloro-4-fluorophenyl)-2-methyl-5-(5-(oxazol-5-yl)thiophen-2-yl)-1,2,6-thiadiazinane-3-carboxamide 1,1-dioxide], the EC50 fell in the range of 1000 to 5000 nM. To `CCc1sc(C2CC(C(=O)Nc3ccc(F)c(Cl)c3)N(C)S(=O)(=O)N2)cc1Br` (centres unmarked) [HBV-CSU-334, 5-(4-bromo-5-ethylthiophen-2-yl)-N-(3-chloro-4-fluorophenyl)-2-methyl-1,2,6-thiadiazinane-3-carboxamide 1,1-dioxide] belongs less than 1000 nM; to `CN1[C@H](C(=O)Nc2ccc(F)c(Cl)c2)C[C@H](c2ccc(-c3ccccc3)s2)NS1(=O)=O` [HBV-CSU-116-ISO-I, Cis-N-(3-chloro-4-fluorophenyl)-2-methyl-5-(5-phenylthiophen-2-yl)-1,2,6-thiadiazinane-3-carboxamide 1,1-dioxide], less than 1000 nM. Under `CN1[C@@H](C(=O)Nc2ccc(F)c(Cl)c2)C[C@@H](c2ncc(-c3ccc(NS(C)(=O)=O)cc3)s2)NS1(=O)=O` (relative stereo) [HBV-CSU-179, Cis-N-(3-Chloro-4-fluorophenyl)-2-methyl-5-(5-(4-(methylsulfonamido)phenyl)thiazol-2-yl)-1,2,6-thiadiazinane-3-carboxamide 1,1-dioxide] stands less than 1000 nM. To `CN1[C@@H](C(=O)Nc2ccc(F)c(Cl)c2)C[C@@H](c2cc(-c3cncs3)cs2)NS1(=O)=O` [HBV-CSU-286-ISO-II, Cis-N-(3-Chloro-4-fluorophenyl)-2-methyl-5-(4-(thiazol-5-yl)thiophen-2-yl)-1,2,6-thiadiazinane-3-carboxamide 1,1-dioxide] belongs 1000 to 5000 nM; to `O=C(Nc1ccc(F)c(Cl)c1)[C@@H]1C[C@H](c2nccs2)NS(=O)(=O)N1` [HBV-CSU-096-ISO-II, Cis-N-(3-Chloro-4-fluorophenyl)-5-(thiazol-2-yl)-1,2,6-thiadiazinane-3-carboxamide 1,1-dioxide], less than 1000 nM; to `CN1[C@@H](C(=O)Nc2ccc(F)c(Cl)c2)C[C@@H](c2ccc(F)cn2)NS1(=O)=O` [HBV-CSU-032-ISO-II, Cis-N-(3-Chloro-4-fluorophenyl)-5-(5-fluoropyridin-2-yl)-2-methyl-1,2,6-thiadiazinane-3-carboxamide 1,1-dioxide], more than 5000 nM. Consider `CN1C(C(=O)Nc2ccc(F)c(Cl)c2)CC(c2ccc(-c3cn(C)cn3)s2)NS1(=O)=O` (racemic) [HBV-CSU-266, Cis-N-(3-Chloro-4-fluorophenyl)-2-methyl-5-(5-(1-methyl-1H-imidazol-4-yl)thiophen-2-yl)-1,2,6-thiadiazinane-3-carboxamide 1,1-dioxide], for which the EC50 was less than 1000 nM. As for `CN1[C@@H](C(=O)Nc2ccc(F)c(Cl)c2)C[C@@H](c2cc(-c3cn[nH]c3)cs2)NS1(=O)=O` [HBV-CSU-245-ISO-II], the EC50 was less than 1000 nM.

Regarding `CN1[C@@H](C(=O)Nc2ccc(F)c(Cl)c2)C[C@H](c2ccc(-c3cn(C)cn3)s2)NS1(=O)=O` [HBV-CSU-266-Trans-ISO-I, (3R,5R)-N-(3-chloro-4-fluorophenyl)-2-methyl-5-(5-(1-methyl-1H-imidazol-4-yl)thiophen-2-yl)-1,2,6-thiadiazinane-3-carboxamide 1,1-dioxide], the EC50 was less than 1000 nM. To `CN1C(C(=O)Nc2ccc(F)c(Cl)c2)CC(c2cc(-c3cn[nH]c3)cs2)NS1(=O)=O` (centres unmarked) [HBV-CSU-245] belongs less than 1000 nM; to `C=CCN1C(C(=O)Nc2ccc(F)c(Cl)c2)CC(c2cccs2)NS1(=O)=O` (stereo not drawn) [HBV-CSU-040, Cis-2-Allyl-N-(3-chloro-4-fluorophenyl)-5-(thiophen-2-yl)-1,2,6-thiadiazinane-3-carboxamide 1,1-dioxide], less than 1000 nM; to `CN1[C@H](C(=O)Nc2ccc(F)c(Cl)c2)C[C@H](c2ccc(-c3ccc(C(F)(F)F)nc3)s2)NS1(=O)=O` [HBV-CSU-158-ISO-I, Cis-N-(3-chloro-4-fluorophenyl)-2-methyl-5-(5-(6-(trifluoromethyl)pyridin-3-yl)thiophen-2-yl)-1,2,6-thiadiazinane-3-carboxamide 1,1-dioxide], less than 1000 nM. To `Cc1ccc(C2CC(C(=O)Nc3ccc(F)c(Cl)c3)N(C)S(=O)(=O)N2)s1` (racemic) [HBV-CSU-115, Cis-N-(3-chloro-4-fluorophenyl)-2-methyl-5-(5-methylthiophen-2-yl)-1,2,6-thiadiazinane-3-carboxamide 1,1-dioxide] belongs less than 1000 nM.
